Experimental data taken from patent US20040048279A1, “Method for detecting methylation states for a toxicological diagnostic” (priority 2000, published 2004).

Key:
Cyp1a1 = settings: mice exposed to the substance; Arch Biochem Biophys 2000;376(1):66-73; cited from earlier work
HT29-P208 cells = experiment: Methylation state of CpG positions by bisulfite treatment, multiplex PCR and oligonucleotide array hybridization in treated HT29-P208 cells; format: cell-based; settings: for methylation state of selected CpG positions of the genes EGFR, ANT1 and CDC25A (CG signal / (CG+TG signal)): trichostatin 50 nM or milrinone 50 μM, FIG. 4; for methylation state of selected CpG positions of the genes EGFR, ANT1 and CDC25A (CG signal / (CG+TG signal)) / methylation state of selected CpGs of the genes TGF-a, EGFR, ANT1 and E-cadherin (CG signal / (CG+TG signal)): treated versus untreated; for methylation state of selected CpGs of the genes TGF-a, EGFR, ANT1 and E-cadherin (CG signal / (CG+TG signal)): FIG. 3; for differences in methylation of 64 gene fragments versus controls: treatment time 6 h (data not shown); for degree of methylation of various CpG positions of 64 gene fragments, in contrast to controls (HT29-P208 in medium): treatment time 24 h, 10 ng/ml TGF-b1 or 10 ng/ml IL-1b in medium, FIGS. 1 and 2, p<0.05
Protocol: HT-29 P208 cells (5×10^4 cells/ml) were seeded in culture dishes (33×5 cm) and grown for 5 days in DMEM/Ham's F-12 medium, which was supplemented with 10% fetal calf serum at 37° C. and 5% CO2, up to 95% confluence (Campbell-Thompson, M. and Bhardwaj, B., Cancer Research 2001, 61, 632-640). The cells were then incubated for 24 h in medium not containing calf serum. After repeated change of medium, the cells were incubated in 3 parallel cultures for 6 h and 24 h, either with medium, medium supplemented with 10 ng/ml TGF-b1, medium supplemented with 10 ng/ml IL-1b, medium supplemented with trichostatin (50 nM) or medium supplemented with milrinone (50 μM). The cells freed of medium were treated with trypsin, centrifuged, and resuspended in 200 μl of PBS buffer (Fritsch and Maniatis eds., Molecular Cloning: A Laboratory Manual, 1989), and stored at −20° C. The chromosomal DNA was purified with a QIAamp Kit according to the manufacturer's instructions (Qiagen, Hilden).
The DNA samples (20 ng) were digested with the restriction enzyme Mss1. The digested DNA was chemically converted with hydrogen sulfite (bisulfite, disulfite) and a radical trap at elevated temperature (DE 10050942). In this way, after alkaline hydrolysis, all unmethylated cytosines are converted to uracil, which correspond in their base-pairing behavior to thymidine. In contrast, 5-methylcytosine is not modified under these conditions.
The chemically pretreated DNA was then amplified with the use of a heat-stable DNA polymerase in a polymerase chain reaction. The multiplex PCR reactions were conducted with a thermocycler (Eppendorf GmbH) with the use of 10 ng of bisulfite-treated DNA, each time with […] of primer oligonucleotides (mixture of up to 32 individual primer oligonucleotides; see Table 3), 800 μM dNTPs and 4.5 mM magnesium chloride. The cycler program was as follows: step 1, 14 min at 96° C.; step 2, 60 sec 96° C.; step 3, 45 sec 55° C.; step 4, 75 sec 72° C.; step 5, 10 min at 72° C.; steps 2 to 4 were repeated 39 times.
The DNA fragments of 64 different genes listed in Table 3 were amplified with 6 sets of multiplex PCR (mPCR) and with bisulfite-treated DNA as the template, as described above. The mPCR reactions (I, J, K, L, M, N) of the genomic, bisulfite-treated DNA were conducted with the combination of primer oligonucleotides as listed in Table 3. It is also possible, however, to use other primer oligonucleotides in the same way for the amplification of the genomic, bisulfite-treated DNA. The primer pairs listed in Table 1, however, are particularly preferred.
The amplificates produced in Example 2 were hybridized with 512 oligonucleotides, which were bound to a solid phase (Model, F. and Adorjian, P., Bioinformatics 2001, 17 Suppl. 1, 157-164). The solid phase loaded with oligonucleotides is named an oligonucleotide array below. The detectability of the hybridization product is based on primer oligonucleotides fluorescently labeled with Cy5, which were used for the amplification. A hybridization reaction of the amplified DNA with the oligonucleotide, for example, GTTTTTTTCGTTTTAGAG (Sequence ID 6), occurs only when a methylated cytosine is present at the said site of the bisulfite-treated DNA. Thus, the methylation state of the specific cytosine can be determined by means of the hybridization product. In order to verify the methylation state of said position, an oligonucleotide is found on the oligonucleotide array, which permits it to detect the unmethylated cytosine. This oligonucleotide is identical to the oligonucleotide which was previously used for the analysis of the methylated status of the sample, with the exception that the oligonucleotide bears a thymine base instead of a cytosine base at the position to be analyzed, e.g., GTTTTTTTTGTTTTAGAG (Sequence ID 7). Thus, a hybridization reaction occurs only if an unmethylated cytosine is present at the position to be analyzed. […]

Molecule	Cyp1a1 gene expression after exposure (Cyp1a1)	methylation state of selected CpG positions of the genes EGFR, ANT1 and CDC25A (CG signal / (CG+TG signal)) (HT29-P208 cells)	methylation state of selected CpGs of the genes TGF-a, EGFR, ANT1 and E-cadherin (CG signal / (CG+TG signal)) (HT29-P208 cells)	differences in methylation of 64 gene fragments versus controls (HT29-P208 cells)	degree of methylation of various CpG positions of 64 gene fragments, in contrast to controls (HT29-P208 in medium) (HT29-P208 cells)
O=c1cc(-c2ccccc2)oc2ccc3ccccc3c12 [beta-naphthoflavone]	induced				
Cc1[nH]c(=O)c(C#N)cc1-c1ccncc1 [milrinone, reference compound]		reduction in the methylation state			
CC(/C=C/C(=O)NO)=C\[C@@H](C)C(=O)c1ccc(N(C)C)cc1 [trichostatin, reference compound]		increase			
IL-1b: IL-1b (interleukin), exogenous cytokine added to medium at 10 ng/ml			no change or to an increase in the methylation state	no significant differences in methylation	greater degree of methylation
TGF-b1: TGF-b1 (transforming growth factor), exogenous cytokine added to medium at 10 ng/ml			significant reduction of the methylation state	no significant differences in methylation	smaller degree of methylation
